In ChEMBL document CHEMBL1201862, “PubChem BioAssay data set” (2004):
The source made the active and inactive calls.

What was measured:
[1] = molecular target: T1, Neuropeptide Y receptor type 1 (Homo sapiens, UniProt P25929); test: IC50 of human NPY-Y1 blockers – cell-based, dose response (AID 1277); type: functional
T1 sequence (P25929 whole entry): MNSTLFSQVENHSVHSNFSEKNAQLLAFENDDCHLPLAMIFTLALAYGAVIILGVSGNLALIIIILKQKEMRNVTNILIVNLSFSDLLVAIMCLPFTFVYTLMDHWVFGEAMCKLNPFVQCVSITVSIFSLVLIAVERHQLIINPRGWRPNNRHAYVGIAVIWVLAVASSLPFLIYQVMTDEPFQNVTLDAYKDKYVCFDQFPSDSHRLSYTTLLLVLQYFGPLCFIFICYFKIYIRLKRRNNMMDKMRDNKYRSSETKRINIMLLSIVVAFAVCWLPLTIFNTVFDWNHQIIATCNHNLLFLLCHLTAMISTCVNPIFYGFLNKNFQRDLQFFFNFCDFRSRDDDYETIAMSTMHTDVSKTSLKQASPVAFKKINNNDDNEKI

[2] = molecular target: T2, Neuropeptide Y receptor type 2 (Homo sapiens, UniProt P49146); test: IC50 for human NPY-Y2 blockade – cell-based, counter-screen for NPY-Y1 antagonist project, dose response (AID 1278); type: functional
T2 sequence (P49146 whole entry): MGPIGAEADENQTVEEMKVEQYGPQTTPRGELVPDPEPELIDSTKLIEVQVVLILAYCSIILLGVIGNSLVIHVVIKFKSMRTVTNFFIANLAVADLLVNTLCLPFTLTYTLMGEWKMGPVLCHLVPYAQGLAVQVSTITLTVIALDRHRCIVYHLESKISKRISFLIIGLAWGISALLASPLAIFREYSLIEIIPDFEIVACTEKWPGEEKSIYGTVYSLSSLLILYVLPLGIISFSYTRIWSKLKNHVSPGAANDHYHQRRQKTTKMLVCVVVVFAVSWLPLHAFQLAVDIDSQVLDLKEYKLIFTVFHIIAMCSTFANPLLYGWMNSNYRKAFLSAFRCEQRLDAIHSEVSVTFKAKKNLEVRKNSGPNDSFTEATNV

[3] = toxicity toward HepG2 liver cells – cell-based, plate reader, cherry-pick, antagonist series, cytotoxicity control, dose response (AID 743416); type: functional
[4] = molecular target: Neurotensin receptor type 1 (Homo sapiens, UniProt P30989); type: functional;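 also: Image-based confirmatory dose-response assay measuring agonist activity at NTR1; NTR1-expressing U2OS osteosarcoma cells imaged for beta-arrestin GFP spot formation; agonist potency where compounds increase beta-arrestin recruitment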
[5] = viability loss in HEK293 cells – cell-based, plate reader, cherry-picked samples, cytotoxicity control, dose response (AID 743446); type: functional
[6] = A549 cell cytotoxicity, dose response, cytotoxicity control, plate reader, cherry-pick, antagonist series (AID 743412); type: functional, cell-based
[7] = blockers of bursicon-stimulated LGR2 cAMP reporter – cell-based, HEK293, CRE-luciferase reporter, cherry pick, set 2, dose response (AID 743343); type: functional;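 also: transfected cells were stimulated with diluted bursicon conditioned medium after compound addition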
[8] = blockade of melanocortin 4 receptor signaling – cell-based, plate reader, cherry pick, counter-screen for LGR2 antagonist project, dose response (AID 743444); type: functional;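 also: transfected HEK 293 cells stimulated with alpha-MSH peptide; potency of inhibitors of the alpha-MSH evoked signal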
[9] = viability of HCT116 lacking mutant beta-catenin – cell-based, human colon tumor, dose response (AID 1045); type: functional;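 also: HCT116 colon tumor cells with beta catenin knocked out; cells exposed to compound for 60 hours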
[10] = M. tuberculosis H37Rv growth inhibitors, H37Rv strain (AID 1626); type: functional
[11] = viability of PTEN-deleted HCT116 cells – cell-based, HCT116 PTEN knockout, dose response (AID 1047); type: functional;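 also: HCT116 colon tumor cells with PTEN knocked out; cells exposed to compound for 60 hours before readout; potency for loss of cell viability measured by luminescence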
[12] = molecular target: T3, Histone-lysine N-methyltransferase NSD2 (Homo sapiens, UniProt O96028); type: biochemical
T3 sequence (O96028 whole entry): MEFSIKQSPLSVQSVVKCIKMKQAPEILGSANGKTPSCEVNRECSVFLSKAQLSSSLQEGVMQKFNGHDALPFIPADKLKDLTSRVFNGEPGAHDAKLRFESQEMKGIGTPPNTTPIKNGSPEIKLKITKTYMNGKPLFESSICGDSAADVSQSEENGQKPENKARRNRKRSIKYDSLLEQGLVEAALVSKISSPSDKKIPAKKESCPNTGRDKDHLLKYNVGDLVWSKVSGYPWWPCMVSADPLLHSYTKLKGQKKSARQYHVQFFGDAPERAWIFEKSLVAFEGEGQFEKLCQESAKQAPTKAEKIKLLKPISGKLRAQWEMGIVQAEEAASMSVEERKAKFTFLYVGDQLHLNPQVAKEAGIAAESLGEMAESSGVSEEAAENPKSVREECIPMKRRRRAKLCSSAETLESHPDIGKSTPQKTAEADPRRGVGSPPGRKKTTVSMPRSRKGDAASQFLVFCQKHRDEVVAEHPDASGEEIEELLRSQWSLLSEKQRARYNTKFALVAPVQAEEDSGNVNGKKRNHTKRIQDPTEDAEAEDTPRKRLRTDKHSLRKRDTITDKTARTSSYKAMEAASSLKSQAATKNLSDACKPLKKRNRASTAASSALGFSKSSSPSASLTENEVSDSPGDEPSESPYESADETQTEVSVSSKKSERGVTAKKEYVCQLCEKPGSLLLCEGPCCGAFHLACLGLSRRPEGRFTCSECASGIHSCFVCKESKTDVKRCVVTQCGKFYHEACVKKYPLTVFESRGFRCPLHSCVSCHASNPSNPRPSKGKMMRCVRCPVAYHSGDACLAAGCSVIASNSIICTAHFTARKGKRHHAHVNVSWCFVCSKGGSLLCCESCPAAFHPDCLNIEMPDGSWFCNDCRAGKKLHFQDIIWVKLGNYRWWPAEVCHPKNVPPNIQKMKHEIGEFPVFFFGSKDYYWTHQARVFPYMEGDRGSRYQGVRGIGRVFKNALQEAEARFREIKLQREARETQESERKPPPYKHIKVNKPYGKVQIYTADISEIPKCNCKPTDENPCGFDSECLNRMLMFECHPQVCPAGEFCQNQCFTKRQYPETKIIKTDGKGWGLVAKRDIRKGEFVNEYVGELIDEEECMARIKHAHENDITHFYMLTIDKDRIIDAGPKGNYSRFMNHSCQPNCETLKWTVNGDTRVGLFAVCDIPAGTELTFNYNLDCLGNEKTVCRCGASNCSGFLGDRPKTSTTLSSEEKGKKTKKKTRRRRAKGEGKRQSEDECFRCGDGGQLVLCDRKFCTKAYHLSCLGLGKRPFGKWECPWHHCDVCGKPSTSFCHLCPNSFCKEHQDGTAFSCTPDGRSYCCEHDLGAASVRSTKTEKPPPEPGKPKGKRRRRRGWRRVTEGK

[13] = molecular target: Intestinal-type alkaline phosphatase (Mus musculus, UniProt P24822); test: PubChem AID 488785; type: functional
Sequence of Intestinal-type alkaline phosphatase (Mus musculus, UniProt P24822) (P24822 whole entry): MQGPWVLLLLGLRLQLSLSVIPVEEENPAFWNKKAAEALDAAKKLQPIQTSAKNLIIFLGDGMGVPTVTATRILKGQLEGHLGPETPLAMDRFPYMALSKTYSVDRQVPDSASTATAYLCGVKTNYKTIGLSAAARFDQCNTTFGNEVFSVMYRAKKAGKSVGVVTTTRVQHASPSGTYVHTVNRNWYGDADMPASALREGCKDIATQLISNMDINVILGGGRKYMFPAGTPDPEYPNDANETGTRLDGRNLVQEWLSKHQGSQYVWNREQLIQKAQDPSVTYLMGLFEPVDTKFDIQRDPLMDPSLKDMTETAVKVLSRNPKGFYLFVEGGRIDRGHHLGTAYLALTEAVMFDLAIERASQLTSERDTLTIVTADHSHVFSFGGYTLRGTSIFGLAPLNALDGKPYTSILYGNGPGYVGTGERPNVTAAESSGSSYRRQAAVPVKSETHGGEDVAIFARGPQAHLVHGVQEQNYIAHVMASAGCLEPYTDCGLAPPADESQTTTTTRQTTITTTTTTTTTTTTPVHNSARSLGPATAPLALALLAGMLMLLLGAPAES

Bcl-2-like protein 1 = Bcl-2-like protein 1 (Homo sapiens, UniProt Q07817); test: blockers of BCLXL peptide binding – biochemical, fluorescence polarization, 1536-well, selectivity assay for MCL1 inhibitor project, dose response (AID 2218)
Sequence of Bcl-2-like protein 1 (Q07817 whole entry): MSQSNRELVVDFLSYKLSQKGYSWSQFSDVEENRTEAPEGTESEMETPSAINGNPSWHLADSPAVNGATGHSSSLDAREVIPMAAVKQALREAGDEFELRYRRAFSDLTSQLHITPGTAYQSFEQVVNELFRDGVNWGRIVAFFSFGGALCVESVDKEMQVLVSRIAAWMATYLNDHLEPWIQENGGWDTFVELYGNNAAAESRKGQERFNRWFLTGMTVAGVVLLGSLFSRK

[14] = molecular target: T4, Alkaline phosphatase, tissue-nonspecific isozyme (Homo sapiens, UniProt P05186); test: TNAP enzyme inhibition by screening hits, dose response, selectivity assay for mouse IAP inhibitor project, biochemical, human TNAP, uHTS hits (AID 488906); type: functional
T4 sequence (P05186 whole entry): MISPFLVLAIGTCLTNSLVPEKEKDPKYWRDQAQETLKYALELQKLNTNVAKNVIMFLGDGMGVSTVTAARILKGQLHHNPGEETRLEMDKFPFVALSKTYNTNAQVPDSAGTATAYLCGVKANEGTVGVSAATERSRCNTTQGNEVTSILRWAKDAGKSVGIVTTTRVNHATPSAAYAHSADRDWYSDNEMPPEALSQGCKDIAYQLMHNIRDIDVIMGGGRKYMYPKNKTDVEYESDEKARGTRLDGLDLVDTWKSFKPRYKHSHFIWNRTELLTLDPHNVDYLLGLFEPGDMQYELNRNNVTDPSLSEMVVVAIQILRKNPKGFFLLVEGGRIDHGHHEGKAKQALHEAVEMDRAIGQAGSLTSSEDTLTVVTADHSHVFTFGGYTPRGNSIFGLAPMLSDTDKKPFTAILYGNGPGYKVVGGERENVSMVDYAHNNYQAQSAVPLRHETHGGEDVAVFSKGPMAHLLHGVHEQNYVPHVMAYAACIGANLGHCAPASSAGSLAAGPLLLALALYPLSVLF

[15] = molecular target: NAD-dependent protein deacylase sirtuin-5, mitochondrial (Homo sapiens, UniProt Q9NXA8); test: sirtuin-5 deacylation blockers, concentration series – biochemical, fluorescence imaging, cherry-pick, set 5, dose response (AID 720591);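 also: desuccinylation of succinyl peptide AMC substrate read as fluorescence after trypsin release; potency of inhibitors that lower fluorescence and may act on trypsin instead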
Sequence of NAD-dependent protein deacylase sirtuin-5, mitochondrial (Q9NXA8 whole entry): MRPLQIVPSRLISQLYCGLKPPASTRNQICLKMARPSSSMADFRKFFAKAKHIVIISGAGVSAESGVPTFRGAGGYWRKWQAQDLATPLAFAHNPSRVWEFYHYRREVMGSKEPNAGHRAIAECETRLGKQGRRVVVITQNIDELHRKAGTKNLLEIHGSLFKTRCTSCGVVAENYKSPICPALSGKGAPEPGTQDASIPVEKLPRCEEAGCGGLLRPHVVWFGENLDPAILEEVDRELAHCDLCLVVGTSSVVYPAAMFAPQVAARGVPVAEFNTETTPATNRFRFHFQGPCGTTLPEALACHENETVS

[16] = molecular target: Intestinal-type alkaline phosphatase (Homo sapiens, UniProt P09923); test: inhibition of human intestinal alkaline phosphatase – biochemical, dose response (AID 488876); type: functional
Sequence of Intestinal-type alkaline phosphatase (Homo sapiens, UniProt P09923) (P09923 whole entry): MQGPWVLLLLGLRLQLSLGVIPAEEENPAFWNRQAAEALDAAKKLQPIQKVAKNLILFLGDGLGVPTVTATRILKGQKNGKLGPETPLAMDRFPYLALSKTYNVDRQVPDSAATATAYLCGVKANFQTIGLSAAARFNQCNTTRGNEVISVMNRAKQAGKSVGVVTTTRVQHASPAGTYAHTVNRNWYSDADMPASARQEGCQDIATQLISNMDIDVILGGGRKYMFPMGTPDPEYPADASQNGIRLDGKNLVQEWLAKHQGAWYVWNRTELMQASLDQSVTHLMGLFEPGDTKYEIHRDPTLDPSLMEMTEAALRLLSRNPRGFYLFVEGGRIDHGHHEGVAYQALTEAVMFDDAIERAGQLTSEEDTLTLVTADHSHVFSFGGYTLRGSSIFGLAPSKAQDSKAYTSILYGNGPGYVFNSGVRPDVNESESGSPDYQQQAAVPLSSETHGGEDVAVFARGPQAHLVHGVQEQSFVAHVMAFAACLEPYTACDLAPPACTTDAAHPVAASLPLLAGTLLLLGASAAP

[17] = molecular target: Induced myeloid leukemia cell differentiation protein Mcl-1 (Homo sapiens, UniProt Q07820); test: blockers of MCL1 binding to BIM peptide – biochemical, fluorescence polarization, BIM-BH3 peptide, 1536-well, dose response (AID 2217)
Sequence of Induced myeloid leukemia cell differentiation protein Mcl-1 (Q07820 whole entry): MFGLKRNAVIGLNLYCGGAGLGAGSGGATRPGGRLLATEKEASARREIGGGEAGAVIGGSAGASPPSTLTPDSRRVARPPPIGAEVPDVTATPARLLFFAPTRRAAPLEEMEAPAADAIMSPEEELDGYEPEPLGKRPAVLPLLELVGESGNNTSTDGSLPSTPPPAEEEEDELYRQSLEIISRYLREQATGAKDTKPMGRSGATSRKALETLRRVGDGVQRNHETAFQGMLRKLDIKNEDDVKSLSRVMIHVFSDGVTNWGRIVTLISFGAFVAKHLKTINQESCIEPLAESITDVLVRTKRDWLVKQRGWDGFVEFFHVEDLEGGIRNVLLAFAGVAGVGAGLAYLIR

[18] = molecular target: Voltage-gated inwardly rectifying potassium channel KCNH2 (Homo sapiens, UniProt Q12809); test: concentration-dependent hERG rescue from blockers – cell-based, thallium flux, dose response (AID 2121); type: ADME
Sequence of Voltage-gated inwardly rectifying potassium channel KCNH2 (Q12809 whole entry): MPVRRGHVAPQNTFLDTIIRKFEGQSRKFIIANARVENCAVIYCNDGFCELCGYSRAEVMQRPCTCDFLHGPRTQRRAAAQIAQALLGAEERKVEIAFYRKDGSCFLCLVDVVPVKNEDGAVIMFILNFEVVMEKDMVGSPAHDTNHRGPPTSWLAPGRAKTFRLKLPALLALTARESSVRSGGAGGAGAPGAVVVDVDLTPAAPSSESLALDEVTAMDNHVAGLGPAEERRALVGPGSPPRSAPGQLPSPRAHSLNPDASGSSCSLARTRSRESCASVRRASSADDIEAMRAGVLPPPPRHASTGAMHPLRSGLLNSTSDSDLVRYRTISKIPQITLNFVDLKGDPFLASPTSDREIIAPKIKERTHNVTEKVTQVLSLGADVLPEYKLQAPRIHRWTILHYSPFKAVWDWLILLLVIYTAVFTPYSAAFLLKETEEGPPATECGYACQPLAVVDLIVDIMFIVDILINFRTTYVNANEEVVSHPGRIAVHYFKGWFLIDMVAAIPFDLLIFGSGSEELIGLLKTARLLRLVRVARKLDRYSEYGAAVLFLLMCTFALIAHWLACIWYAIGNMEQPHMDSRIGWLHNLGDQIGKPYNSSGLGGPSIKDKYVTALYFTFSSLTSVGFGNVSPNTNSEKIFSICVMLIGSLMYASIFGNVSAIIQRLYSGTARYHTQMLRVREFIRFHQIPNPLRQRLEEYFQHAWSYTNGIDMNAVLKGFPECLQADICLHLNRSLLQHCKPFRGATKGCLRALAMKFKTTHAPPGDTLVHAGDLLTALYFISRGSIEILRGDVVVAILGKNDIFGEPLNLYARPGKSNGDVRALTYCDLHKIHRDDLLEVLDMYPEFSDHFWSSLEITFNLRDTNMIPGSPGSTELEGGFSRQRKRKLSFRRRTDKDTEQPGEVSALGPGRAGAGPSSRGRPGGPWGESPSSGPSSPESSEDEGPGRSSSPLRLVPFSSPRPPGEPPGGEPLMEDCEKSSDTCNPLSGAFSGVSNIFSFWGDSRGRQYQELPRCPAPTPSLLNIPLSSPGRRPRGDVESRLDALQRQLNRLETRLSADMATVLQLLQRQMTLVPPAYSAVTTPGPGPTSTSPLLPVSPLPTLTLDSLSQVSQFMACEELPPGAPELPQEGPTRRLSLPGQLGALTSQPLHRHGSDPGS

Cytochrome P450 2C9 = Cytochrome P450 2C9 (Homo sapiens, UniProt P11712)
Sequence of Cytochrome P450 2C9 (P11712 whole entry): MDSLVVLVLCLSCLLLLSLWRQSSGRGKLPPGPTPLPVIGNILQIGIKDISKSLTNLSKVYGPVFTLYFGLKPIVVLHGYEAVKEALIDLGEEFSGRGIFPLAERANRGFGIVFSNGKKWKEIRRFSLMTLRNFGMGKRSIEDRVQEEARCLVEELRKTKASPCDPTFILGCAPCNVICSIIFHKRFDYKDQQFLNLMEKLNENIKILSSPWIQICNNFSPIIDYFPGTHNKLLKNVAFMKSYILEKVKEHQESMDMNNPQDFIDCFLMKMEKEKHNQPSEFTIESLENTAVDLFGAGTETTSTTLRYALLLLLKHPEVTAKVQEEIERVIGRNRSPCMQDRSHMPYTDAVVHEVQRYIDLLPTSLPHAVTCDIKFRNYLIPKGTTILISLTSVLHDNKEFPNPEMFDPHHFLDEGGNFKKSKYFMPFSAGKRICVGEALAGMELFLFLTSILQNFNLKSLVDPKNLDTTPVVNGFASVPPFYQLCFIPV

Cytochrome P450 2C19 = Cytochrome P450 2C19 (Homo sapiens, UniProt P33261); test: Cytochrome panel assay with activity outcomes. Panel member name: p450-cyp2c19 Compounds with AC50 equal or less than 10 uM are considered active; type: functional; details: read-out: AC50
Sequence of Cytochrome P450 2C19 (P33261 whole entry): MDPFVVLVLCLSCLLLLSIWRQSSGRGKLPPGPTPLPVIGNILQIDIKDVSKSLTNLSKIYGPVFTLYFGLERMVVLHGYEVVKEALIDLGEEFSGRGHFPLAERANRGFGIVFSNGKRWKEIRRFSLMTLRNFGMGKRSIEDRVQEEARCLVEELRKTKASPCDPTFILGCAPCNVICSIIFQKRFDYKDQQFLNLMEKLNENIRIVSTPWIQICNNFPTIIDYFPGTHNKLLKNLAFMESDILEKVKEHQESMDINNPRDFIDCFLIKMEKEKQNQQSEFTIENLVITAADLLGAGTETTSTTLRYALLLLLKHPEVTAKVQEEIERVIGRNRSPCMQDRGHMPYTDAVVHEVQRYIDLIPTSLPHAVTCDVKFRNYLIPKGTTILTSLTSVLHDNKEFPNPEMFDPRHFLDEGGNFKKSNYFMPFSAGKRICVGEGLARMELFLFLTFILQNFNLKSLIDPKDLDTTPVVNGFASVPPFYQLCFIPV

Cytochrome P450 3A4 = Cytochrome P450 3A4 (Homo sapiens, UniProt P08684);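 also: CYP3A4 tested as one member of a cytochrome P450 panel screen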
Sequence of Cytochrome P450 3A4 (P08684 whole entry): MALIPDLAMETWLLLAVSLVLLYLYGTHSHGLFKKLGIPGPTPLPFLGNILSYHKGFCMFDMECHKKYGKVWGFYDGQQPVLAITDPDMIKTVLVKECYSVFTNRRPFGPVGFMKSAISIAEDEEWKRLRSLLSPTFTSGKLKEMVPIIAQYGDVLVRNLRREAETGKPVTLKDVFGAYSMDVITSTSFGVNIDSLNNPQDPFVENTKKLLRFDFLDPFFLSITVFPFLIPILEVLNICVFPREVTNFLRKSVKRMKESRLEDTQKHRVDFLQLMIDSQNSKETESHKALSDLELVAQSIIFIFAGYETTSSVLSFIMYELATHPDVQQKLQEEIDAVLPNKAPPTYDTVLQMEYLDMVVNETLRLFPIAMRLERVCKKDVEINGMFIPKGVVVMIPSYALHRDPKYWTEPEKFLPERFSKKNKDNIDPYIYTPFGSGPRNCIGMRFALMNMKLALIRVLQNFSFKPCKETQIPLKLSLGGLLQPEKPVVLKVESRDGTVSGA

Protein skinhead-1 = molecular target: T5, Protein skinhead-1 (Caenorhabditis elegans, UniProt P34707); type: functional
T5 sequence (P34707 whole entry): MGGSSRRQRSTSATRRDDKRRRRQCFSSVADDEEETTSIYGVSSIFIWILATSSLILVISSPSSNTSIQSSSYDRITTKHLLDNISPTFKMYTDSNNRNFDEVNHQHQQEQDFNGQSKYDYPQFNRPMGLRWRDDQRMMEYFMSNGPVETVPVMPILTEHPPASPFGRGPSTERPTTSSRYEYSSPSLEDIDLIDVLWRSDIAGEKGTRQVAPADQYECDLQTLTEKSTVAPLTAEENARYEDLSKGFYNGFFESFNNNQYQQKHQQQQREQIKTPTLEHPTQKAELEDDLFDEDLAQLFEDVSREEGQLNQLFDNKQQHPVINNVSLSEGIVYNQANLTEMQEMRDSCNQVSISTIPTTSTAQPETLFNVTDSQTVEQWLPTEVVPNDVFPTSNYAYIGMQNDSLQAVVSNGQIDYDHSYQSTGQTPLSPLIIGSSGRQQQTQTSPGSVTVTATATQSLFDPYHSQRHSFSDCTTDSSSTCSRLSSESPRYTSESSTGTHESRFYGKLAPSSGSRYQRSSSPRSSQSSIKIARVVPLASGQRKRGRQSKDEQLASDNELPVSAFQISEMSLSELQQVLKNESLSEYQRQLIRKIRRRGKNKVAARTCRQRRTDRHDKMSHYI

Compound: CCC(C)(C(=O)NC1CCCC1)N(Cc1ccco1)C(=O)Cc1cccs1 (stereo not given)
- IC50 [1]: > 35 µM (not active)
- IC50 [2]: > 35 µM (not active)

Compound: CC(C)C(=O)N1CCN(c2ccc(NC(=O)c3ccc4c(c3)OCCO4)cc2Cl)CC1
- AC50 [3]: 17.7 µM (active)
- EC50 [4]: 18.5 µM (active)
- AC50 [5]: 10.7 µM (active)
- AC50 [6]: 22.6 µM (active)
- AC50 [7]: 16 µM (active)
- AC50 [8]: 19.1 µM (active)
- EC50 [9]: 9.2 µM (active)
- IC50 [10]: > 100 µM (active)
- EC50 [11]: 9.21 µM (active)

Compound: CCOC(=O)C1(CCCc2ccccc2)CCN(C2CCSCC2)CC1
- IC50 [1]: 16.7 µM (not active)
- IC50 [2]: > 35 µM (not active)

Compound: N#Cc1c(SCC(=O)Nc2nncs2)sc2c(O)cc(=O)[nH]c12
- AC50 [12]: 6.29 µM (active)
- IC50 [13]: 2.3 µM (active)
- IC50 (Bcl-2-like protein 1): 96.5 µM (not active)
- IC50 [14]: > 100 µM (inactive)
- AC50 [15]: 4.58 µM (active)
- IC50 [16]: > 100 µM (inactive)
- IC50 [17]: 25.3 µM (not active)

Compound: Cc1ccc(NC(=S)c2nc3ccccc3s2)cc1
- EC50 [18]: 0.46 µM (active)
- AC50 (Cytochrome P450 2C9): 10 µM (inconclusive)
- AC50 (Cytochrome P450 2C19): 0.0251 µM (inconclusive)
- AC50 (Cytochrome P450 3A4): 22.4 µM (inconclusive)
- IC50 (Protein skinhead-1): > 100 µM (inactive)
